# Data reported in PubChem BioAssay AID248 (DTP/NCI, 2004).
# Several values for one entry are separate records, joined by “and”; a condition that tells them apart may be missing. Identical values can stand only once. Toxic doses and inconclusive results are not listed.
# Test system: L1210 leukemia ip in BDF1 mice, survival T/C
# Assay: NCI In Vivo Anticancer Drug Screen. Data for tumor model L1210 Leukemia (intraperitoneal) in B6D2F1 (BDF1) mice
# Details: endpoint: mean survival time, higher = longer survival
# Outline: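 Tumor was transplanted into mice, which were then dosed with test compound or vehicle alone. Survival was recorded for each group, and the treated figure was expressed relative to the control figure.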
smiles,measurement,setting,value
C=CC(CN1CC1)OC(C)=O (stereo unspecified),T/C,"dose: 0.25 mg/kg/injection, schedule: Q03DX Z (ip), vehicle: saline",104 % of control
same,T/C,"dose: 0.5 mg/kg/injection, schedule: Q01DX010 (oral), vehicle: saline",120 % of control
same,T/C,"dose: 0.5 mg/kg/injection, schedule: Q03DX Z (ip), vehicle: saline",98 % of control
same,T/C,"dose: 0.95 mg/kg/injection, schedule: Q01DX Z (ip), vehicle: olive oil, sesame oil, peanut oil",105 % of control
same,T/C,"dose: 0.95 mg/kg/injection, schedule: Q01DX Z (oral), vehicle: olive oil, sesame oil, peanut oil",100 % of control
same,T/C,"dose: 1.0 mg/kg/injection, schedule: Q03DX Z (ip), vehicle: saline",106 % of control
same,T/C,"dose: 1.0 mg/kg/injection, schedule: Q07DX Z (ip), vehicle: saline",105 % of control
same,T/C,"dose: 1.2 mg/kg/injection, schedule: Q01DX Z (ip), vehicle: carboxymethylcellulose (CMC)",104 % of control
same,T/C,"dose: 1.24 mg/kg/injection, schedule: Q01DX Z (ip), vehicle: carboxymethylcellulose (CMC)",109 % of control
same,T/C,"dose: 1.3 mg/kg/injection, schedule: Q#A X Z (ip), vehicle: other",112 % of control
same,T/C,"dose: 1.8 mg/kg/injection, schedule: Q01DX Z (ip), vehicle: carboxymethylcellulose (CMC)",93 % of control and 98 % of control
same,T/C,"dose: 1.8 mg/kg/injection, schedule: Q01DX Z (oral), vehicle: carboxymethylcellulose (CMC)",102 % of control
same,T/C,"dose: 1.9 mg/kg/injection, schedule: Q01DX Z (ip), vehicle: olive oil, sesame oil, peanut oil",116 % of control
same,T/C,"dose: 1.9 mg/kg/injection, schedule: Q01DX Z (oral), vehicle: olive oil, sesame oil, peanut oil",103 % of control
same,T/C,"dose: 1.9 mg/kg/injection, schedule: Q01DX Z (oral), vehicle: other",102 % of control
same,T/C,"dose: 2.0 mg/kg/injection, schedule: Q01DX006 (iv), vehicle: saline",100 % of control
same,T/C,"dose: 2.0 mg/kg/injection, schedule: Q01DX010 (oral), vehicle: saline",100 % of control
same,T/C,"dose: 2.0 mg/kg/injection, schedule: Q02DX004 (im), vehicle: saline",116 % of control
same,T/C,"dose: 2.0 mg/kg/injection, schedule: Q07DX Z (ip), vehicle: saline",95 % of control
same,T/C,"dose: 2.48 mg/kg/injection, schedule: Q01DX Z (ip), vehicle: carboxymethylcellulose (CMC)",109 % of control
same,T/C,"dose: 2.5 mg/kg/injection, schedule: Q01DX Z (oral), vehicle: saline",121 % of control
same,T/C,"dose: 2.6 mg/kg/injection, schedule: Q01DX Z (ip), vehicle: other",117 % of control
same,T/C,"dose: 2.6 mg/kg/injection, schedule: Q01DX Z (sc), vehicle: other",119 % of control
same,T/C,"dose: 2.7 mg/kg/injection, schedule: Q01DX Z (ip), vehicle: carboxymethylcellulose (CMC)",118 % of control
same,T/C,"dose: 3.25 mg/kg/injection, schedule: Q01DX Z (ip), vehicle: saline",151 % of control
same,T/C,"dose: 3.25 mg/kg/injection, schedule: Q01DX Z (oral), vehicle: saline",161 % of control
same,T/C,"dose: 3.7 mg/kg/injection, schedule: Q01DX Z (ip), vehicle: carboxymethylcellulose (CMC)",93 % of control
same,T/C,"dose: 3.7 mg/kg/injection, schedule: Q01DX Z (oral), vehicle: carboxymethylcellulose (CMC)",101 % of control and 90 % of control
same,T/C,"dose: 3.75 mg/kg/injection, schedule: Q01DX Z (ip), vehicle: olive oil, sesame oil, peanut oil",122 % of control
same,T/C,"dose: 3.75 mg/kg/injection, schedule: Q01DX Z (oral), vehicle: olive oil, sesame oil, peanut oil",105 % of control
same,T/C,"dose: 3.8 mg/kg/injection, schedule: Q01DX Z (ip), vehicle: olive oil, sesame oil, peanut oil",90 % of control
same,T/C,"dose: 3.8 mg/kg/injection, schedule: Q01DX Z (oral), vehicle: other",120 % of control
same,T/C,"dose: 4.0 mg/kg/injection, schedule: Q01DX006 (iv), vehicle: saline",108 % of control
same,T/C,"dose: 4.0 mg/kg/injection, schedule: Q01DX Z (sc), vehicle: other",122 % of control
same,T/C,"dose: 4.0 mg/kg/injection, schedule: Q02DX004 (im), vehicle: saline",120 % of control
same,T/C,"dose: 4.0 mg/kg/injection, schedule: Q07DX Z (ip), vehicle: saline",115 % of control
same,T/C,"dose: 4.5 mg/kg/injection, schedule: Q#A X Z (ip), vehicle: other",102 % of control
same,T/C,"dose: 7.5 mg/kg/injection, schedule: Q01DX009 (ip), vehicle: saline",191 % of control
same,T/C,"dose: 7.5 mg/kg/injection, schedule: Q01DX Z (ip), vehicle: carboxymethylcellulose (CMC)",104 % of control
same,T/C,"dose: 7.5 mg/kg/injection, schedule: Q01DX Z (ip), vehicle: saline",259 % of control
same,T/C,"dose: 7.5 mg/kg/injection, schedule: Q01DX Z (oral), vehicle: carboxymethylcellulose (CMC)",93 % of control and 96 % of control
same,T/C,"dose: 7.5 mg/kg/injection, schedule: Q01DX Z (oral), vehicle: olive oil, sesame oil, peanut oil",111 % of control
same,T/C,"dose: 7.5 mg/kg/injection, schedule: Q01DX Z (oral), vehicle: saline",150 % of control
same,T/C,"dose: 7.6 mg/kg/injection, schedule: Q01DX Z (oral), vehicle: olive oil, sesame oil, peanut oil",150 % of control
same,T/C,"dose: 7.6 mg/kg/injection, schedule: Q01DX Z (oral), vehicle: other",88 % of control
same,T/C,"dose: 8.0 mg/kg/injection, schedule: Q03DX Z (ip), vehicle: other",153 % of control
same,T/C,"dose: 8.0 mg/kg/injection, schedule: Q07DX Z (ip), vehicle: saline",121 % of control
same,T/C,"dose: 9.0 mg/kg/injection, schedule: Q01DX Z (ip), vehicle: other",100 % of control
same,T/C,"dose: 10.0 mg/kg/injection, schedule: Q01DX Z (oral), vehicle: saline",169 % of control
same,T/C,"dose: 11.0 mg/kg/injection, schedule: Q01DX001 (ip), vehicle: saline",109 % of control and 118 % of control
same,T/C,"dose: 12.0 mg/kg/injection, schedule: Q03DX Z (ip), vehicle: other",159 % of control
same,T/C,"dose: 14.85 mg/kg/injection, schedule: Q01DX Z (ip), vehicle: carboxymethylcellulose (CMC)",96 % of control
same,T/C,"dose: 15.0 mg/kg/injection, schedule: Q01DX009 (ip), vehicle: saline",107 % of control
same,T/C,"dose: 15.0 mg/kg/injection, schedule: Q01DX Z (ip), vehicle: carboxymethylcellulose (CMC)",120 % of control
same,T/C,"dose: 15.0 mg/kg/injection, schedule: Q01DX Z (ip), vehicle: saline",111 % of control
same,T/C,"dose: 15.0 mg/kg/injection, schedule: Q01DX Z (oral), vehicle: carboxymethylcellulose (CMC)",102 % of control and 117 % of control
same,T/C,"dose: 15.0 mg/kg/injection, schedule: Q01DX Z (oral), vehicle: saline",108 % of control
same,T/C,"dose: 15.1 mg/kg/injection, schedule: Q01DX Z (oral), vehicle: olive oil, sesame oil, peanut oil",104 % of control
same,T/C,"dose: 15.1 mg/kg/injection, schedule: Q01DX Z (oral), vehicle: other",96 % of control
same,T/C,"dose: 16.0 mg/kg/injection, schedule: Q02DX004 (im), vehicle: saline",189 % of control
same,T/C,"dose: 17.0 mg/kg/injection, schedule: Q01DX001 (ip), vehicle: saline",116 % of control
same,T/C,"dose: 18.0 mg/kg/injection, schedule: Q03DX Z (ip), vehicle: other",112 % of control
same,T/C,"dose: 18.0 mg/kg/injection, schedule: Q07DX Z (ip), vehicle: other",175 % of control
same,T/C,"dose: 19.8 mg/kg/injection, schedule: Q01DX Z (ip), vehicle: carboxymethylcellulose (CMC)",96 % of control
same,T/C,"dose: 20.0 mg/kg/injection, schedule: Q01DX Z (oral), vehicle: saline",106 % of control
same,T/C,"dose: 25.0 mg/kg/injection, schedule: Q01DX001 (ip), vehicle: saline",153 % of control
same,T/C,"dose: 27.0 mg/kg/injection, schedule: Q03DX Z (ip), vehicle: other",89 % of control
same,T/C,"dose: 28.0 mg/kg/injection, schedule: Q07DX Z (ip), vehicle: other",158 % of control
same,T/C,"dose: 30.0 mg/kg/injection, schedule: Q01DX Z (ip), vehicle: saline",105 % of control
same,T/C,"dose: 30.0 mg/kg/injection, schedule: Q01DX Z (oral), vehicle: carboxymethylcellulose (CMC)",101 % of control and 113 % of control
same,T/C,"dose: 30.0 mg/kg/injection, schedule: Q01DX Z (oral), vehicle: saline",111 % of control and 88 % of control
same,T/C,"dose: 32.0 mg/kg/injection, schedule: Q02DX004 (im), vehicle: saline",97 % of control
same,T/C,"dose: 32.0 mg/kg/injection, schedule: Q07DX Z (ip), vehicle: saline",210 % of control
same,T/C,"dose: 50.0 mg/kg/injection, schedule: Q01DX001 (ip), vehicle: saline",94 % of control
same,T/C,"dose: 60.0 mg/kg/injection, schedule: Q01DX Z (ip), vehicle: saline",116 % of control
same,T/C,"dose: 60.0 mg/kg/injection, schedule: Q01DX Z (oral), vehicle: saline",113 % of control
